A value given as a limit tells only on which side of the number the result lay.

The assay has as its target T1, IRAK4 (Homo sapiens, UniProt Q9NWZ3).
T1 construct: His (N); TEV cleavage site (N)
T1 sequence (Q9NWZ3 1-460): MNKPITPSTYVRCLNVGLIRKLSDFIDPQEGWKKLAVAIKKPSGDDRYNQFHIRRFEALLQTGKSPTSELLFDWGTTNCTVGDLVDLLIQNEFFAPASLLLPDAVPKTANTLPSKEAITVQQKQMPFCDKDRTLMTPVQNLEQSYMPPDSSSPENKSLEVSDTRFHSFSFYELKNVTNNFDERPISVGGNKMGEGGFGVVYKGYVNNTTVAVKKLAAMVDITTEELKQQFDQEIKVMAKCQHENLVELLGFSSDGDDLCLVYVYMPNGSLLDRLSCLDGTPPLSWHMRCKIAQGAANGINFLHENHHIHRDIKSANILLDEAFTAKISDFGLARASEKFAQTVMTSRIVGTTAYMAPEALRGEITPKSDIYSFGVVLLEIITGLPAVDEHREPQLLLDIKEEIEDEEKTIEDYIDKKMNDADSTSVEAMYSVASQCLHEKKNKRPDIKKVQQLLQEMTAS
Put plainly: IRAK4 Enzymatic Assay. It counts as biochemical. The conditions noted are these: His-TEV-IRAK4 20 ng/well, ATP 2 μM, STK1-biotin peptide 300 nM, 3 hours at 30° C., FlashPlate radioactivity. An outline of the steps: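 Recombinant His-TEV-tagged IRAK4 (20 ng/well) phosphorylates biotinylated STK1 peptide (300 nM) with 2 μM ATP plus [^33P]ATP, 3 h at 30 °C in pH 7.0 HEPES buffer with MgCl2 and MnCl2; compounds tested 20 μM to 1 nM. Reaction stopped with EDTA; incorporated radioactivity counted on streptavidin FlashPlates.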
In general, IC50 refers to the point on the concentration scale where inhibition reaches its midpoint. Turning to `Cn1cc(-c2cccc(-c3ncc(-c4cnn([C@@H]5CCNC5)c4)cn3)c2)cn1` [Example 116, 2-[3-(1-Methyl-1H-pyrazol-4-yl)-phenyl]-5-((R)-1-pyrrolidin-3-yl-1H-pyrazol-4-yl)-pyrimidine], the IC50 was 0.1 to 1 µM. Take `Cn1cc(-c2cccc(-c3ncc(-c4cnn(C5CCN(C(=O)C6CC(=O)C6)CC5)c4)cn3)c2)cn1` [Example 117, 3-[4-(4-{2-[3-(1-Methyl-1H-pyrazol-4-yl)-phenyl]-pyrimidin-5-yl}-pyrazol-1-yl)-piperidine-1-carbonyl]-cyclobutanone]: the IC50 lay within 0.1 to 1 µM. Take `Cn1cc(-c2cccc(-c3ncc(-c4cnn(C5C[C@H]6CC[C@@H](C5)N6CC(O)C(F)(F)F)c4)cn3)c2)cn1` (stereo partly drawn) [Example 118, 1,1,1-Trifluoro-3-[(1R,5S)-3-(4-{2-[3-(1-methyl-1H-pyrazol-4-yl)-phenyl]-pyrimidin-5-yl}-pyrazol-1-yl)-8-aza-bicyclo[3.2.1]oct-8-yl]-propan-2-ol]: the IC50 was in the range of 0.1 to 1 µM. For the compound `CC(=O)N1[C@@H]2CC[C@H]1CC(n1cc(-c3cnc(-c4cccc(-c5cnn(C)c5)c4)nc3)cn1)C2` (stereo partly drawn) [Example 119, 1-[(1R,5S)-3-(4-{2-[3-(1-Methyl-1H-pyrazol-4-yl)-phenyl]-pyrimidin-5-yl}-pyrazol-1-yl)-8-aza-bicyclo[3.2.1]oct-8-yl]-ethanone], the 50% inhibitory concentration (IC50) is 0.1 to 1 µM. On to `Cn1cc(-c2cccc(-c3ncc(-c4cnn(C5CCN(C(=O)C6CC(O)C6)CC5)c4)cn3)c2)cn1` (stereo not shown) [Example 120, (3-Hydroxy-cyclobutyl)-[4-(4-{2-[3-(1-methyl-1H-pyrazol-4-yl)-phenyl]-pyrimidin-5-yl}-pyrazol-1-yl)-piperidin-1-yl]-methanone], for which the IC50 fell in the range of 0.1 to 1 µM.

Take `CO[C@@H]1COCCC1N1CCC(n2cc(-c3cnc(-c4cccc(-c5cnn(C)c5)c4)nc3)cn2)CC1` (stereo partly drawn) [Example 122, 5-{1-[1-((S)-3-Methoxy-tetrahydro-pyran-4-yl)-piperidin-4-yl]-1H-pyrazol-4-yl}-2-[3-(1-methyl-1H-pyrazol-4-yl)-phenyl]-pyrimidine]: the IC50 fell in the range of 0.1 to 1 µM. As to `CN1CCC[C@H]1C(=O)N1CCC(n2cc(-c3cnc(-c4cccc(-c5cnn(C)c5)c4)nc3)cn2)CC1` [Example 123, [4-(4-{2-[3-(1-Methyl-1H-pyrazol-4-yl)-phenyl]-pyrimidin-5-yl}-pyrazol-1-yl)-piperidin-1-yl]-((S)-1-methyl-pyrrolidin-2-yl)-methanone], the half-inhibitory concentration (IC50) fell in the range of 0.1 to 1 µM. For `CC(C)[C@H](N)C(=O)N1CCC(n2cc(-c3cnc(-c4cccc(-c5cnn(C)c5)c4)nc3)cn2)CC1` [Example 124, (S)-2-Amino-3-methyl-1-[4-(4-{2-[3-(1-methyl-1H-pyrazol-4-yl)-phenyl]-pyrimidin-5-yl}-pyrazol-1-yl)-piperidin-1-yl]-butan-1-one] the value was 0.1 to 1 µM; for `Cn1cc(-c2cccc(-c3ncc(-c4cnn([C@H]5CCNC5)c4)cn3)c2)cn1` [Example 125, 2-[3-(1-Methyl-1H-pyrazol-4-yl)-phenyl]-5-((S)-1-pyrrolidin-3-yl-1H-pyrazol-4-yl)-pyrimidine], 0.1 to 1 µM; for `CC(=O)N1CC[C@H](n2cc(-c3cnc(-c4cccc(-c5cnn(C)c5)c4)nc3)cn2)C1` [Example 126, 1-[(S)-3-(4-{2-[3-(1-Methyl-1H-pyrazol-4-yl)-phenyl]-pyrimidin-5-yl}-pyrazol-1-yl)-pyrrolidin-1-yl]-ethanone], 0.1 to 1 µM. As to `Cn1cc(-c2cccc(-c3ncc(-c4cnn(CC(=O)N5C6CCC5CC(O)C6)c4)cn3)c2)cn1` (stereo not shown) [Example 127, 1-(3-Hydroxy-8-aza-bicyclo[3.2.1]oct-8-yl)-2-(4-{2-[3-(1-methyl-1H-pyrazol-4-yl)-phenyl]-pyrimidin-5-yl}-pyrazol-1-yl)-ethanone], the half-inhibitory concentration (IC50) was 0.1 to 1 µM. For the compound `Cn1cc(-c2cccc(-c3ncc(-c4cnn(CC(=O)N5C6CCC5CC(O)C6)c4)cn3)c2)cn1` (stereo not shown) [Example 128, 1-(3-Hydroxy-8-aza-bicyclo[3.2.1]oct-8-yl)-2-(4-{2-[3-(1-methyl-1H-pyrazol-4-yl)-phenyl]-pyrimidin-5-yl}-pyrazol-1-yl)-ethanone], the IC50 was in the range of 0.1 to 1 µM.

For the compound `Cn1cc(-c2cccc(-c3ncc(-c4cnn(C5CCOC5=O)c4)cn3)c2)cn1` (stereo not shown) [Example 129, 3-(4-{2-[3-(1-Methyl-1H-pyrazol-4-yl)-phenyl]-pyrimidin-5-yl}-pyrazol-1-yl)-dihydro-furan-2-one], the concentration for half-maximal inhibition (IC50) was in the range of 0.1 to 1 µM.

As for `CC(=O)N1CC[C@@H](n2cc(-c3cnc(-c4cccc(-c5cnn(C)c5)c4)nc3)cn2)C1` [Example 130, 1-[(R)-3-(4-{2-[3-(1-Methyl-1H-pyrazol-4-yl)-phenyl]-pyrimidin-5-yl}-pyrazol-1-yl)-pyrrolidin-1-yl]-ethanone], the concentration for half-maximal inhibition (IC50) is 1 to 5 µM. Regarding `Cn1cc(-c2cccc(-c3ncc(-c4cnn(CCC5CCOC5)c4)cn3)c2)cn1` (stereo not shown) [Example 131, 2-[3-(1-Methyl-1H-pyrazol-4-yl)-phenyl]-5-{1-[2-(tetrahydro-furan-3-yl)-ethyl]-1H-pyrazol-4-yl}-pyrimidine], the IC50 was 0.1 to 1 µM.

Regarding `Cn1cc(-c2cccc(-c3ncc(-c4cnn(CCC5CCOC5=O)c4)cn3)c2)cn1` (stereo not shown) [Example 132, 3-[2-(4-{2-[3-(1-Methyl-1H-pyrazol-4-yl)-phenyl]-pyrimidin-5-yl}-pyrazol-1-yl)-ethyl]dihydro-furan-2-one], the IC50 fell in the range of 0.1 to 1 µM. On to `CC(C)N1C2CCCC1CC(n1cc(-c3cnc(-c4cccc(-c5cnn(C)c5)c4)nc3)cn1)C2` (stereo not shown) [Example 133, 9-Isopropyl-3-(4-{2-[3-(1-methyl-1H-pyrazol-4-yl)-phenyl]-pyrimidin-5-yl}-pyrazol-1-yl)-9-aza-bicyclo[3.3.1]nonane], for which the IC50 was in the range of 0.1 to 1 µM. For `CN(C)C(=O)[C@H]1CC[C@H](n2cc(-c3cnc(-c4cccc(-c5cnn(C)c5)c4)nc3)cn2)CC1` [Example 134, Trans-4-(4-{2-[3-(1-Methyl-1H-pyrazol-4-yl)-phenyl]-pyrimidin-5-yl}-pyrazol-1-yl)-cyclohexanecarboxylic acid dimethylamide] the value was under 0.1 µM. In the case of `CN(C)C(=O)[C@H]1CC[C@@H](n2cc(-c3cnc(-c4cccc(-c5cnn(C)c5)c4)nc3)cn2)CC1` [Example 135, Cis-4-(4-{2-[3-(1-Methyl-1H-pyrazol-4-yl)-phenyl]-pyrimidin-5-yl}-pyrazol-1-yl)-cyclohexanecarboxylic acid dimethylamide], the IC50 is 0.1 to 1 µM.

With `Nc1cc(-c2cccc(-c3ncc(-c4cnn(C5CCOCC5)c4)cn3)c2)ccn1` [Example 136, 4-(3-{5-[1-(Tetrahydro-pyran-4-yl)-1H-pyrazol-4-yl]-pyrimidin-2-yl}-phenyl)-pyridin-2-ylamine], the IC50 lay in the range of 0.1 to 1 µM. In the case of `Cn1cc(-c2cccc(-c3ncc(-c4cn(C5CCOCC5)nc4C(N)=O)cn3)c2)cn1` [Example 137, 4-{2-[3-(1-Methyl-1H-pyrazol-4-yl)-phenyl]-pyrimidin-5-yl}-1-(tetrahydro-pyran-4-yl)-1H-pyrazole-3-carboxylic acid amide], the half-maximal inhibitory concentration (IC50) fell in the range of 1 to 5 µM. Next, `Cc1cc(-c2cccc(-c3ncc(-c4cnn(C5CCOCC5)c4)cn3)c2)cnn1` [Example 138, 3-Methyl-5-(3-{5-[1-(tetrahydro-pyran-4-yl)-1H-pyrazol-4-yl]-pyrimidin-2-yl}-phenyl)-pyridazine]: 0.1 to 1 µM.

The values above are taken from US9216991B2 (Ares Trading S.A., priority 2012, dated 2015).
